As usually defined, the IC50 is the concentration that gives 50% inhibition. Usually Ki stands for a dissociation constant, usually derived from enzyme kinetics or from competition with a known ligand. For orientation: Kb means the equilibrium dissociation constant of an antagonist, usually derived from a functional assay. In general, inhibition refers to the percentage by which the read-out fell short of the control. For orientation: half-life means how long it takes for the measured level to halve.

The text below walks through data of ChEMBL document CHEMBL3616453, “Recent progress in the development of small-molecule glucagon receptor antagonists” (Bioorg Med Chem Lett, 2015).

The target of data set [1] is T1, Glucagon receptor (Homo sapiens, UniProt P47871). Kind of data set: Antagonist activity at recombinant human glucagon receptor expressed in CHO cells assessed as inhibition of glucagon-stimulated intracellular cAMP formation preincubated for 30 mins followed by glucagon stimulation measured after 45 mins by LANCE assay. The class given is functional, cell-based.
T1 sequence (P47871 whole entry): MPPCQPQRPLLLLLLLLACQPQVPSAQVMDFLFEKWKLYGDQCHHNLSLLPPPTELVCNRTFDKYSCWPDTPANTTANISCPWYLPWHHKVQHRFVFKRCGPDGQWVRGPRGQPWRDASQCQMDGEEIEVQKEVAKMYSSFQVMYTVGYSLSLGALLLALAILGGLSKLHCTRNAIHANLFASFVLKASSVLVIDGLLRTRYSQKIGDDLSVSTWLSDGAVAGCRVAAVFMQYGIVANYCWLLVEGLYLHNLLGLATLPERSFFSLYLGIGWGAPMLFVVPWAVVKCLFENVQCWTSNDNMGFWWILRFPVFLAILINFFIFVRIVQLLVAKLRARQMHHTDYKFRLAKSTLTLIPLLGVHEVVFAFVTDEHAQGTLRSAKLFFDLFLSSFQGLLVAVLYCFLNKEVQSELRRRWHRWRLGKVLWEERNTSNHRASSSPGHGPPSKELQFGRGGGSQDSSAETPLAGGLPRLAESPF

Data set [2] addresses T1, Glucagon receptor. Briefly: Displacement of [125I]-glucagon from human glucagon receptor expressed in Chem-1 cell membranes after 6 to 10 hrs by scintillation proximity assay.
The target in data set [3] is T1, Glucagon receptor. Briefly: Antagonist activity at human glucagon receptor expressed in CHOK1 cells assessed as inhibition of glucagon-stimulated intracellular cAMP formation preincubated for 20 mins followed by glucagon stimulation measured after 30 mins by fluorescent plate reader analysis. The conditions noted are these: CHO-K1. The class given is functional, cell-based.

In data set [4] the target is T1, Glucagon receptor. Kind of data set: Displacement of [125I]-glucagon from full length human glucagon receptor expressed in HEK293 cell membranes after 2 hrs by scintillation counting analysis. (In general: In a radioligand displacement assay an active substance lowers the binding of a labelled ligand.)
The target of data set [5] is T1, Glucagon receptor. Briefly: Antagonist activity at human glucagon receptor expressed in HEK293 cell membranes assessed as inhibition of glucagon-stimulated intracellular cAMP formation preincubated for 30 mins followed by glucagon stimulation measured after 5 mins by TR-FRET analysis. The class given is functional, cell-based. (cAMP levels reflect the balance of adenylyl cyclase and phosphodiesterase activity.)

Data set [6] has as its target T1, Glucagon receptor. Kind of data set: Displacement of [125I]-glucagon from human glucagon receptor expressed in HEK293 cell membranes at 10 uM after 2 hrs by microplate scintillation counting analysis relative to control.
A short description of data set [7]: Half life in human. The class given is ADME, organism-based. The note with it: in vivo.
The species named for data set [8] is Homo sapiens. Briefly: Hypoglycemic activity in human assessed as time required to glucose recovery from 50 mg/dl to >= 70 mg/dl at 1 g (reference value: 33.3 min). The class given is functional.
Data set [9] is filed under the species Homo sapiens. Kind of data set: Hypoglycemic activity in type-2 diabetic human assessed as time required to glucose recovery from 50 mg/dl to >= 63 mg/dl at 1 g in presence of beta blocker propranolol (reference value: 71 min). It is filed as functional.
For data set [10], the system named is Homo sapiens. Briefly: Antidiabetic activity in type-2 diabetic human model assessed as reduction in HbA1c level at 80 mg, qd administered for 12 weeks measured after post last dose relative to control. It is filed as functional. Also on record: scale not given: the % may be the effect or the level left.
In data set [11] the test system is Homo sapiens. Briefly: Antidiabetic activity in type-2 diabetic human model assessed as reduction in HbA1c level at 20 mg, qd administered for 12 weeks measured after post last dose relative to control. The class given is functional. Also on record: scale not given: the % may be the effect or the level left.
Data set [12] relates to Homo sapiens. Kind of data set: Antidiabetic activity in type-2 diabetic human model assessed as reduction in HbA1c level at 40 mg, qd administered for 12 weeks measured after post last dose relative to control. It is filed as functional. Also on record: scale not given: the % may be the effect or the level left.
The species named for data set [13] is Homo sapiens. Kind of data set: Hypoglycemic activity in human assessed as time required to glucose recovery from 50 mg/dl to >= 70 mg/dl at 200 mg (reference value: 33.3 min). The class given is functional.
The test system of data set [14] is Homo sapiens. Briefly: Antidiabetic activity in type-2 diabetic human model assessed as reduction in HbA1c level at 60 mg, qd administered for 12 weeks measured after post last dose relative to control. Also on record: scale not given: the % may be the effect or the level left. It is filed as functional.
Data set [15] deals with Homo sapiens. Briefly: In vivo inhibition of gucagon receptor in type-2 diabetic human model at 6 mg, qd measured during night time relative to control. It is filed as functional.
Data set [16] is filed under the species Homo sapiens. Kind of data set: Antidiabetic activity in type-2 diabetic human model assessed as decrease in fasting plasma glucose level at 25 mg, bid. It is filed as functional.
The species entered for data set [17] is Homo sapiens. Kind of data set: Antidiabetic activity in type-2 diabetic human model assessed as decrease in 24 hrs weighted mean glucose level at 10 mg, qd measured during day time. The class given is functional.
The test system of data set [18] is Homo sapiens. Kind of data set: In vivo inhibition of gucagon receptor in type-2 diabetic human model at 25 mg, bid measured over 24 hrs relative to control. The class given is functional.
Data set [19] concerns Homo sapiens. Kind of data set: In vivo inhibition of gucagon receptor in type-2 diabetic human model at 10 mg, qd measured during day time relative to control. The class given is functional.
Data set [20] is filed under the species Homo sapiens. Kind of data set: Toxicity in type-2 diabetic human model assessed as increase in LDL-C level at 25 mg, bid relative to control. It is filed as organism-based. The note with it: in vivo.
Data set [21] is filed under the species Homo sapiens. Kind of data set: Antidiabetic activity in type-2 diabetic human model assessed as decrease in fasting plasma glucose level at 6 mg, qd measured during night time. It is filed as functional.
The species entered for data set [22] is Homo sapiens. Briefly: Antidiabetic activity in type-2 diabetic human model assessed as decrease in fasting plasma glucose level at 10 mg, qd measured during day time. It is filed as functional.

Each structure is given as a SMILES string.

Regarding `CC(C)(C)CC[C@H](c1ccc(C(=O)NCCC(=O)O)cc1)N1C(=O)C(c2cccc(F)c2)=NC12CCC([Si](C)(C)C)CC2` (stereo partly specified), the half-inhibitory concentration (IC50) on Glucagon receptor [1] stood at 22 nM.
On the same count and under the same terms, the figure for `CC(C)(C)CCOc1cccc(C2=NC3(CCC(C(C)(C)C)CC3)N([C@H](CCC(C)(C)C)c3ccc(C(=O)NCc4nn[nH]n4)cc3)C2=O)c1` (stereo partly specified) is 61 nM.
Take `CCC[C@H](Nc1ccc(-n2cc(-c3ccccc3)cn2)cc1)c1ccc(C(=O)NCCC(=O)O)cc1`: affinity at Glucagon receptor [2] was put at a Ki of 26 nM. Also, the Kb at Glucagon receptor [3] stood at 9.5 nM.
On Glucagon receptor [4], `Cc1cc(C(F)(F)F)ccc1-c1ccc(NCc2ccc(C(F)(F)F)cc2-c2ccc(C(=O)NCCC(=O)O)nc2)cc1Cl` yielded a Ki of 17 nM. Moreover, the IC50 on Glucagon receptor [5] was determined as 22 nM.
On Glucagon receptor [4], `Cc1cc(C(F)(F)F)ccc1-c1ccc(NCc2cc(C(C)C)cc(C(F)(F)F)c2-c2ccc(C(=O)NCCC(=O)O)cc2)cc1Cl` showed an inhibition constant (Ki) of 30 nM.
In the case of `Cc1cc(Cl)ccc1-c1ccc(NCc2cc(Cl)cc(C(F)(F)F)c2-c2ccc(C(=O)NCCC(=O)O)nc2)cc1`, affinity on Glucagon receptor [4] was put at a Ki of 20 nM. Moreover, the concentration for half-maximal inhibition (IC50) on Glucagon receptor [5] came to 4 nM.
At Glucagon receptor [6], `Cc1cc(-c2ncc(C(F)(F)F)cn2)ccc1C(CCC(F)(F)F)Nc1ccc(C(=O)N2CCC[C@@H](C(=O)O)C2)cc1` (stereo partly specified) showed an inhibition of 91%.
The compound `Cc1cc(-n2cc3c(n2)CCCC3)ccc1C(CCC(F)(F)F)Nc1ccc(C(=O)N2CCC[C@@H](C(=O)O)C2)cn1` (stereo partly specified) displayed an inhibition on Glucagon receptor [6] of 90%.
Turning to `Cc1cc2cc(F)ccc2nc1NC(c1ccc(C(=O)NCCC(=O)O)cc1)C1CC(C)(C)C1` (stereo unspecified), the antagonist dissociation constant (Kb) on Glucagon receptor [3] stood at 33 nM.
For the compound `Cc1cc2ccccc2nc1NC(c1ccc(C(=O)NCCC(=O)O)cc1)C1CC(C)(C)C1` (stereo unspecified), the Kb at Glucagon receptor [3] came out at 23 nM.
For `CC1(C)CC(C(Nc2cnc(-n3cc(C(F)(F)F)cn3)nc2)c2ccc(C(=O)NCCC(=O)O)cc2)C1` (racemic), at Glucagon receptor [3], the Kb is 19 nM.
On to `COc1ccc2cc(-c3cc(-c4cc(Cl)cc(Cl)c4)nn3[C@@H](C)c3ccc(C(=O)NCCC(=O)O)cc3)ccc2c1` [MK-0893], for which, in data set [7], the half-life was 60 h. Besides, the Time in the data set listed under Homo sapiens [8] worked out at 59.1 min; in the data set filed under Homo sapiens [9], 103 min; in the data set listed under Homo sapiens [13] it was 45 min. Besides, the Activity in the data set with Homo sapiens [10] stood at 1.8%; in the data set with Homo sapiens [11], 0.6%; in the data set on Homo sapiens [12], 1%; with Homo sapiens [14] it was 1.5%.
For the compound `CCC[C@H](c1ccc(C(=O)NCCC(=O)O)cc1)[C@H](c1ccc(Cl)cc1)c1c[nH]c2c(F)cc(C)cc12` [MK-3577], the results for the “inhibition (INH)” value in the data set with Homo sapiens [15], with Homo sapiens [18] and in the data set with Homo sapiens [19] were under 50%, over 80% and under 50%, respectively. In addition, the Activity amounted to 31.7 mg/dL in the data set filed under Homo sapiens [16]; 18.8 mg/dL in the data set listed under Homo sapiens [17]; 10% in the data set filed under Homo sapiens [20]; 17.5 mg/dL in the data set filed under Homo sapiens [21]; 7.2 mg/dL in the data set filed under Homo sapiens [22]. In addition, the half-life in data set [7] is 4 h.
